The values below come from patent publication US20250295570A1, “PEPTIDE HAVING ACTIVITY OF IMPROVING STATE OF SKIN, AND USE THEREOF” (CAREGEN CO., LTD., priority 2021, published 2025).

Holding throughout (format): cell-based, mouse
For test [1], the system named is NIH3T3 cells. Briefly: Proliferation of skin cells (SRB staining, survival rate of NIH3T3 cells). As to conditions: 50 μM or 100 μM peptide, 72 hours, serum-free DMEM, SRB absorbance at 560 nm, FIG. 1. On the procedure: In this example, the aim was to confirm the effect of a peptide according to an example on proliferation of skin cells, by evaluating changes in survival rate of NIH3T3 cells, which are mouse fibroblasts.
Specifically, NIH3T3 cells were seeded in a […] at a density of 5×10^3 cells/well and cultured for 24 hours. The cells were then washed once with serum-free DMEM media, and the culture medium was replaced with serum-free DMEM media. Then, 50 μM or 100 μM of the peptide consisting of the amino acid sequence of SEQ ID NO: 1 was dispensed into the medium, and cultured in a CO2 incubator at 37° C. for 72 hours. The culture was then washed twice with PBS and treated with 4% paraformaldehyde (PFA) solution for 15 minutes to fix the cultured cells. The culture was then washed twice with distilled water, treated with SRB solution for 1 hour to stain the cells, washed with 1% acetic acid solution, and dried. The dried culture was then dissolved in 20 mM Tris buffer solution and the absorbance at 560 nm was measured using a microplate reader (Molecular Devices, USA). In this example, the untreated group was used as the control group, and the group to which insulin-like growth factor was added (IGF) was used as the positive control group.
In general terms: In SRB staining, fixed cells bind dye roughly in proportion to their protein.

The test system of test [2] is NIH3T3 cells. Briefly: Antioxidant effect on skin cells induced by ultraviolet rays (reactive oxygen species, DCF-DA, FACS). As to conditions: 50 μM or 100 μM peptide, 6 J/cm2 ultraviolet rays, 24 hours, FL1 fluorescence by flow cytometry, FIG. 5. On the procedure: In this example, the aim was to confirm the effect of the peptide according to an embodiment on the antioxidant effect of skin cells induced by ultraviolet rays, by evaluating the level of reactive oxygen species in skin cells increased by ultraviolet irradiation.
Specifically, NIH3T3 cells were seeded in a 6-well plate at a density of 5×10^5 cells/well and cultured for 24 hours. The cells were then washed once with serum-free DMEM media, the culture medium was replaced with serum-free DMEM media, and 50 μM or 100 μM of the peptide consisting of the amino acid sequence of SEQ ID NO: 1 was dispensed to the culture medium. The culture medium dispensed with the peptide was cultured in a CO2 incubator at 37° C. for 1 hour, transferred to an e-tube, mixed with 100 ul of PBS, and dispensed into a well plate. Afterwards, using a UV irradiator (VILBER LOURMAT, France), 6 J/cm2 ultraviolet rays were irradiated to NIH3T3 cells. The PBS in the well plate was then removed, 900 μL of the culture medium in which the peptides were dispensed was added, and the plate was cultured in a CO2 incubator at 37° C. for 24 hours. The culture was then treated with DCFG-DA (2′,7′-dichlorofluorescin diacetate), wrapped in foil, and cultured in a CO2 incubator at 37° C. for 30 minutes. […] After washing the centrifuged cells with PBS, FL1 fluorescence values were measured through flow cytometry (FACS, BD, USA). […]

The subject of test [3] is NIH3T3 cells. Put plainly: Inhibition of apoptosis of skin cells induced by ultraviolet rays (SRB survival rate). The following applies: 50 μM or 100 μM peptide, 6 J/cm2 ultraviolet rays, 72 hours, FIG. 4. How it is done:
In this example, the aim was to confirm the effect of the peptide according to an example on the inhibition of apoptosis or cell recovery of skin cells induced by ultraviolet rays, by evaluating the change in survival rate of skin cells whose apoptosis was induced by ultraviolet irradiation.
Specifically, NIH3T3 cells were seeded in a […] at a density of 1×10^4 cells/well and cultured for 24 hours. The cells were then washed once with serum-free DMEM media, the culture medium was replaced with serum-free DMEM media, and 50 μM or 100 μM of the peptide consisting of the amino acid sequence of SEQ ID NO: 1 was dispensed to the culture medium. The culture medium dispensed with the peptide was cultured in a CO2 incubator at 37° C. for 1 hour, transferred to an e-tube, mixed with 100 ul of PBS, and dispensed into a well plate. Afterwards, using a UV irradiator (VILBER LOURMAT, France), 6 J/cm2 ultraviolet rays were irradiated to NIH3T3 cells. The PBS in the well plate was then removed, 900 μL of the culture medium in which the peptides were dispensed was added, and the plate was cultured in a CO2 incubator at 37° C. for 72 hours. […] The dried culture was then dissolved in 20 mM Tris buffer solution and the absorbance at 560 nm was measured using a microplate reader (Molecular Devices, USA). […]

Another test deals with collagen type 1 (Col1a1). Briefly: Expression of extracellular matrix constituent factor Col1a1 (RT-PCR) in NIH3T3 cells. As to conditions: 50 μM or 100 μM peptide, 24 hours, FIG. 2 and FIG. 3. How it is done: (§1) In this example, the aim was to confirm the effect of the peptide according to an example on improving endogenous skin aging, including improvement of wrinkles and enhancement of elasticity, etc., by evaluating the expression levels of collagen type 1 (Col1a1), fibronectin, or elastin, which are known components of the dermis.
(§2) Specifically, NIH3T3 cells were seeded in a 6-well plate at a density of 3×10^5 cells/well and cultured for 24 hours. The cells were then washed once with serum-free DMEM media, and the culture medium was replaced with serum-free DMEM media. Thereafter, 50 μM or 100 μM of the peptide consisting of the amino acid sequence of SEQ ID NO: 1 was dispensed into the medium, and cultured in a CO2 incubator at 37° C. for 24 hours. The culture was then washed twice with PBS, and RNA was isolated from the culture using easy blue (iNtRON, Korea). Using an RT kit (Enzynomics, Korea), 1 μg of the isolated RNA was reverse transcribed to synthesize the respective cDNA. Polymerase chain reaction (PCR) was then performed using the cDNAs and primers Col1a1, fibronectin, and elastin. Meanwhile, the untreated group was used as the control group, and the group to which TGF-β1 was added (TGF-β1) was used as the positive control group, the nucleotide sequences of the primers used in this example are shown in Table 2 below.

In another test the test system is elastin. Briefly: Expression of extracellular matrix constituent factor elastin (RT-PCR) in NIH3T3 cells. As to conditions: 50 μM or 100 μM peptide, 24 hours, FIG. 2 and FIG. 3. How it is done: as §1, §2
The subject of the next test is fibronectin. Briefly: Expression of extracellular matrix constituent factor fibronectin (RT-PCR) in NIH3T3 cells. As to conditions: 50 μM or 100 μM peptide, 24 hours, FIG. 2 and FIG. 3. How it is done: as §1, §2

Consider SHNFREEPEMRR (Peptide 1) [SEQ ID NO: 1], for which the proliferation of fibroblasts entry in the test on NIH3T3 cells [1] is listed as “promoted”. Also, the “level of reactive oxygen species in fibroblasts increased by ultraviolet irradiation” value in the test with NIH3T3 cells [2] is recorded as “reduced”. The “cell survival rate of fibroblasts reduced by ultraviolet irradiation” value in the test with NIH3T3 cells [3] is “restored”. The “expression of Col1a1” value in the test on collagen type 1 (Col1a1) is “increased”. In addition, in the test with elastin, the expression of elastin entry is recorded as “increased”. In addition, in the test on fibronectin, the expression of fibronectin entry was “increased”.
